Assay results published in patent publication US20260345619A1 (Principia Biopharma Inc., priority 2023, published 2026).

Assay: Asthma Quality of Life Questionnaire with Standardized Activities (AQLQ(S))
Type: in vivo, human
Settings: for AQLQ global score responders at Week 12, number / AQLQ global score responders at Week 12, percentage: improvement ≥0.5 from baseline
Source text: The AQLQ(S) is a self-administered patient reported outcome to measure the functional impairments that are most troublesome to adolescents and adults ≥12 years of age as a result of their asthma.
Asthma Quality of Life Questionnaire with Standardized Activities (AQLQ(S)) self-administered (≥12 years)
The AQLQ(S) was designed as a self-administered patient reported outcome to measure the functional impairments that are most troublesome to adolescents and adults ≥12 years of age as a result of their asthma. The instrument is comprised of 32 items, each rated on a 7-point Likert scales from 1 to 7. The AQLQ(S) has 4 domains. The domains and the number of items in each domain are as follows: • Symptoms (12 items) • Activity limitation (11 items) • Emotional function (5 items) • Environmental stimuli (4 items)
A global score is calculated ranging from 1 to 7 and a score by domain. Higher scores indicate better quality of life. […] Patients were to complete the questionnaire in an electronic diary during on-site visits.
Secondary endpoints included pre-bronchodilator FEV1 change from baseline at EOT, ACQ-5 score change from baseline, and AQLQ score change from baseline. Other secondary and exploratory endpoints are described in Table 2.

[1] = 400 mg BID, observed/LOCF imputed, n=29, mITT
[2] = 400 mg TID, observed/LOCF imputed, n=53, mITT

Compound: CC(C)(C=C(C#N)C(=O)N1CCC[C@@H](n2nc(-c3ccc(Oc4ccccc4)cc3F)c3c(N)ncnc32)C1)N1CCN(C2COC2)CC1 (mixture of isomers) [rilzabrutinib, (R)-2-[3-[4-amino-3-(2-fluoro-4-phenoxy-phenyl)pyrazolo[3,4-d]pyrimidin-1-yl]piperidine-1-carbonyl]-4-methyl-4-[4-(oxetan-3-yl)piperazin-1-yl]pent-2-enenitrile]
- AQLQ global score responder analysis at Week 12, OR vs. placebo (95% CI) (400 mg BID, 95% CI 1.19, 20.17, mITT): 4.89
- AQLQ global score responders (including multiply imputed) at Week 12, number (400 mg BID, N=32, mITT): 16.6
- AQLQ global score responders (including multiply imputed) at Week 12, percentage (400 mg BID, N=32, mITT): (51.7)
- AQLQ global score responders at Week 12, number [1]: 15
- AQLQ global score responders at Week 12, percentage [1]: (51.7) (14/1) %
- AQLQ global score change from baseline at Week 12, LS Mean Diff vs. placebo (400 mg BID, mITT, 1 asthma exacerbation within 2 years): 0.75
- AQLQ global score change from baseline at Week 12, LS Mean Diff vs. placebo (400 mg BID, mITT, 2 asthma exacerbations within 2 years): 0.61
- AQLQ global score change from baseline at Week 12, LS Mean Diff vs. placebo (400 mg BID, mITT, >2 asthma exacerbations within 2 years): 1.18
- AQLQ global score change from baseline at Week 12, LS Mean Diff vs. placebo (400 mg BID, mITT, Eastern Europe): 0.08
- AQLQ global score change from baseline at Week 12, LS Mean Diff vs. placebo (400 mg BID, mITT, Latin America): 0.87
- AQLQ global score change from baseline at Week 12, LS Mean Diff vs. placebo (400 mg BID, mITT, age <45 years): 0.20
- AQLQ global score change from baseline at Week 12, LS Mean Diff vs. placebo (400 mg BID, mITT, age at asthma onset <12 years): 0.34
- AQLQ global score change from baseline at Week 12, LS Mean Diff vs. placebo (400 mg BID, mITT, age at asthma onset <18 years): 0.43
- AQLQ global score change from baseline at Week 12, LS Mean Diff vs. placebo (400 mg BID, mITT, age at asthma onset ≥12-<18 years): 2.49
- AQLQ global score change from baseline at Week 12, LS Mean Diff vs. placebo (400 mg BID, mITT, age at asthma onset ≥18-<40 years): 0.57
- AQLQ global score change from baseline at Week 12, LS Mean Diff vs. placebo (400 mg BID, mITT, age at asthma onset ≥18 years): 0.75
- AQLQ global score change from baseline at Week 12, LS Mean Diff vs. placebo (400 mg BID, mITT, age at asthma onset ≥40 years): 0.93
- AQLQ global score change from baseline at Week 12, LS Mean Diff vs. placebo (400 mg BID, mITT, age ≥45 years): 1.04
- AQLQ global score change from baseline at Week 12, LS Mean Diff vs. placebo (400 mg BID, mITT, all others than low EOS and low FeNO): 0.61
- AQLQ global score change from baseline at Week 12, LS Mean Diff vs. placebo (400 mg BID, mITT, atopic medical conditions: no): 1.08
- AQLQ global score change from baseline at Week 12, LS Mean Diff vs. placebo (400 mg BID, mITT, atopic medical conditions: yes): 0.52
- AQLQ global score change from baseline at Week 12, LS Mean Diff vs. placebo (400 mg BID, mITT, baseline ACQ-5 score >2): 0.95
- AQLQ global score change from baseline at Week 12, LS Mean Diff vs. placebo (400 mg BID, mITT, baseline ACQ-5 score ≤2): 0.43
- AQLQ global score change from baseline at Week 12, LS Mean Diff vs. placebo (400 mg BID, mITT, baseline BMI <25 kg/m^2): 1.00
- AQLQ global score change from baseline at Week 12, LS Mean Diff vs. placebo (400 mg BID, mITT, baseline BMI ≥25-<30 kg/m^2): 0.67
- AQLQ global score change from baseline at Week 12, LS Mean Diff vs. placebo (400 mg BID, mITT, baseline BMI ≥30 kg/m^2): 0.73
- AQLQ global score change from baseline at Week 12, LS Mean Diff vs. placebo (400 mg BID, mITT, baseline FEV1 reversibility <12%): 0.73
- AQLQ global score change from baseline at Week 12, LS Mean Diff vs. placebo (400 mg BID, mITT, baseline FEV1 reversibility ≥12%): 0.29
- AQLQ global score change from baseline at Week 12, LS Mean Diff vs. placebo (400 mg BID, mITT, baseline FeNO <25 ppb): 0.98
- AQLQ global score change from baseline at Week 12, LS Mean Diff vs. placebo (400 mg BID, mITT, baseline FeNO <35 ppb): 0.84
- AQLQ global score change from baseline at Week 12, LS Mean Diff vs. placebo (400 mg BID, mITT, baseline FeNO ≥25 ppb): 0.51
- AQLQ global score change from baseline at Week 12, LS Mean Diff vs. placebo (400 mg BID, mITT, baseline FeNO ≥35 ppb): 0.77
- AQLQ global score change from baseline at Week 12, LS Mean Diff vs. placebo (400 mg BID, mITT, baseline IgE <100 IU/mL): 0.90
- AQLQ global score change from baseline at Week 12, LS Mean Diff vs. placebo (400 mg BID, mITT, baseline IgE <median 210.8 IU/mL): 1.03
- AQLQ global score change from baseline at Week 12, LS Mean Diff vs. placebo (400 mg BID, mITT, baseline IgE ≥100 IU/mL): 0.59
- AQLQ global score change from baseline at Week 12, LS Mean Diff vs. placebo (400 mg BID, mITT, baseline IgE ≥median 210.8 IU/mL): 0.67
- AQLQ global score change from baseline at Week 12, LS Mean Diff vs. placebo (400 mg BID, mITT, baseline blood eosinophil level 1 <0.15 10^9/L): 0.62
- AQLQ global score change from baseline at Week 12, LS Mean Diff vs. placebo (400 mg BID, mITT, baseline blood eosinophil level 1 ≥0.15 10^9/L): 0.69
- AQLQ global score change from baseline at Week 12, LS Mean Diff vs. placebo (400 mg BID, mITT, baseline blood eosinophil level 2 <0.3 10^9/L): 0.79
- AQLQ global score change from baseline at Week 12, LS Mean Diff vs. placebo (400 mg BID, mITT, baseline blood eosinophil level 2 ≥0.3 10^9/L): 0.67
- AQLQ global score change from baseline at Week 12, LS Mean Diff vs. placebo (400 mg BID, mITT, baseline percent predicted FEV1 <68%): 0.92
- AQLQ global score change from baseline at Week 12, LS Mean Diff vs. placebo (400 mg BID, mITT, baseline percent predicted FEV1 ≥68%): 0.47
- AQLQ global score change from baseline at Week 12, LS Mean Diff vs. placebo (400 mg BID, mITT, baseline pre-bronchodilator FEV1 <2.022 L): 0.89
- AQLQ global score change from baseline at Week 12, LS Mean Diff vs. placebo (400 mg BID, mITT, baseline pre-bronchodilator FEV1 ≥2.022 L): 0.54
- AQLQ global score change from baseline at Week 12, LS Mean Diff vs. placebo (400 mg BID, mITT, baseline weight <60 kg): 1.63
- AQLQ global score change from baseline at Week 12, LS Mean Diff vs. placebo (400 mg BID, mITT, baseline weight ≥60-<90 kg): 0.70
- AQLQ global score change from baseline at Week 12, LS Mean Diff vs. placebo (400 mg BID, mITT, baseline weight ≥90 kg): −0.26
- AQLQ global score change from baseline at Week 12, LS Mean Diff vs. placebo (400 mg BID, mITT, female): 0.73
- AQLQ global score change from baseline at Week 12, LS Mean Diff vs. placebo (400 mg BID, mITT, former smokers): 1.89
- AQLQ global score change from baseline at Week 12, LS Mean Diff vs. placebo (400 mg BID, mITT, low EOS (<0.15) and low FeNO (<25)): 2.45
- AQLQ global score change from baseline at Week 12, LS Mean Diff vs. placebo (400 mg BID, mITT, male): 0.41
- AQLQ global score change from baseline at Week 12, LS Mean Diff vs. placebo (400 mg BID, mITT, never smokers): 0.65
- AQLQ global score non-responders at Week 12, number [1]: 14
- AQLQ global score non-responders at Week 12, percentage [1]: (48.3) (10/4)
- participants with AQLQ improvement of at least 0.5 from baseline at Week 12 (400 mg BID, placebo 34.5%, p=0.0281): 51.7%
- AQLQ global score responder analysis at Week 12, OR vs. placebo (95% CI) (400 mg TID, 95% CI 1.02, 4.89, mITT): 2.23
- AQLQ global score responders (including multiply imputed) at Week 12, number (400 mg TID, N=64, mITT): 32.9
- AQLQ global score responders (including multiply imputed) at Week 12, percentage (400 mg TID, N=64, mITT): (51.4)
- AQLQ global score responders at Week 12, number [2]: 29
- AQLQ global score responders at Week 12, percentage [2]: (54.7) (28/1) %
- AQLQ global score change from baseline at Week 12, LS Mean Diff vs. placebo (400 mg TID, mITT, 1 asthma exacerbation within 2 years): 0.29
- AQLQ global score change from baseline at Week 12, LS Mean Diff vs. placebo (400 mg TID, mITT, 2 asthma exacerbations within 2 years): 0.27
- AQLQ global score change from baseline at Week 12, LS Mean Diff vs. placebo (400 mg TID, mITT, Eastern Europe): 0.43
- AQLQ global score change from baseline at Week 12, LS Mean Diff vs. placebo (400 mg TID, mITT, Latin America): −0.22
- AQLQ global score change from baseline at Week 12, LS Mean Diff vs. placebo (400 mg TID, mITT, age <45 years): 0.43
- AQLQ global score change from baseline at Week 12, LS Mean Diff vs. placebo (400 mg TID, mITT, age at asthma onset <12 years): 0.46
- AQLQ global score change from baseline at Week 12, LS Mean Diff vs. placebo (400 mg TID, mITT, age at asthma onset <18 years): 0.31
- AQLQ global score change from baseline at Week 12, LS Mean Diff vs. placebo (400 mg TID, mITT, age at asthma onset ≥12-<18 years): −0.37
- AQLQ global score change from baseline at Week 12, LS Mean Diff vs. placebo (400 mg TID, mITT, age at asthma onset ≥18-<40 years): 0.25
- AQLQ global score change from baseline at Week 12, LS Mean Diff vs. placebo (400 mg TID, mITT, age at asthma onset ≥18 years): 0.24
- AQLQ global score change from baseline at Week 12, LS Mean Diff vs. placebo (400 mg TID, mITT, age at asthma onset ≥40 years): 0.29
- AQLQ global score change from baseline at Week 12, LS Mean Diff vs. placebo (400 mg TID, mITT, age ≥45 years): 0.15
